According to patent publication US20030053966A1, “Insoluble organic UV screening agents of aryl vinylene ketone type, and cosmetic use thereof” (priority 2001, published 2003):

Key:
[1] = UV absorption of the compound in solution; type: physicochemical
[2] = solution in DMSO/CH2Cl2, at λmax

CC12CCC(/C(=C\c3cccc(/C=C4/C(=O)C5(C)CCC4C5(C)C)c3)C1=O)C2(C)C [Example 3, 1,3-phenylenebis(3-methylidenecamphor)]
melting point: 152 °C

CC12CCC(/C(=C\c3ccc(/C=C4/C(=O)C5(C)CCC4C5(C)C)cc3)C1=O)C2(C)C [Example 5, 1,4-phenylenebis(3-methylidenecamphor)]
melting point: 234 °C

CCNS(=O)(=O)CC12CCC(C(=Cc3ccc(C=C4C(=O)C5(CS(=O)(=O)NCC)CCC4C5(C)C)cc3)C1=O)C2(C)C [Example 1, 1,4-phenylenebis(ethyl 3,3′-methylidenecamphor-10,10′-sulphonamide)]
λmax ([1]; solution in DMSO/CH2Cl2): 342 nm | E1% [1, 2]: 654 | εmax [1, 2]: 40350

Cc1c(C)c(C=C2C(=O)C3(C)CCC2C3(C)C)c(C)c(C)c1C=C1C(=O)C2(C)CCC1C2(C)C [Example 6, (2,3,5,6-tetramethyl)-1,4-phenylenebis-(3-methylidenecamphor)]
λmax ([1]; solution in CH2Cl3): 286 nm | E1% ([1]; solution, at λmax): 270 | εmax ([1]; solution, at λmax): 12 200

CCCCC(CC)CNS(=O)(=O)CC12CCC(C(=Cc3ccc(C=C4C(=O)C5(CS(=O)(=O)NCC(CC)CCCC)CCC4C5(C)C)cc3)C1=O)C2(C)C (stereo not drawn) [Example 2, 1,4-phenylenebis(2-ethylhexyl 3,3′-methylidenecamphor-10,10′-sulphonamide)]
λmax ([1]; solution in CH2Cl2): 342 nm | E1% ([1]; solution in CH2Cl2, at λmax): 522 | εmax ([1]; solution in CH2Cl2, at λmax): 41 000

C[Si](C)(C)CCCOc1ccc(/C=C2\CC/C(=C\c3ccc(OCCC[Si](C)(C)C)cc3)C2=O)cc1 [Example 8, 2,5-bis[4-(3-trimethylsilanylpropyloxy)-benzylidene]cyclopentanone]
λmax ([1]; solution in CHCl3): 391 nm | E1% ([1]; solution in CHCl3, at λmax): 940 | εmax ([1]; solution in CHCl3, at λmax): 49 100 | melting point: 205 to 207 °C
